*1 amine or outer side, *2 acyl side, *3 side chain or, on linkers, in order; H or OH if unused. Where a SMILES comes first, the peptide text is derived from it. Side-chain parts run from the residue outwards. [ ]: non-standard residue; d: D form. The star is where a group is joined. PEG24 = NCCOCCOCCOCCOCCOCCOCCOCCOCCOCCOCCOCCOCCOCCOCCOCCOCCOCCOCCOCCOCCOCCOCCOCCOCCC(=O)O; Bip(2'-Et-4'-O(CH2)4NH2) = CCc1cc(OCCCCN[*:3])ccc1-c1ccc(C[C@H](N[*:1])C(=O)[*:2])cc1; Malonyl(2,2-Me2,histaminyl) = CC(C)(C(=O)NCCc1cnc[nH]1)C(=O)*; Nva(5-(3,5-Me2Ph)) = Cc1cc(C)cc(CCC[C@H](N)C(=O)O)c1; Ala(1H-tetrazol-5-yl) = N[C@@H](Cc1nnn[nH]1)C(=O)O; αMePhe(2-F) = C[C@](N)(Cc1ccccc1F)C(=O)O; DBCO = C1#Cc2ccccc2N(*)Cc2ccccc21; Suc = O=C(CCC(=O)[*:2])[*:1]
Columns and labels:
[1] = Plasma protein binding (equilibrium dialysis); assay type: in vitro ADME, human; conditions: Human Plasma; 4 hours dialysis
Method: The pH value of the resulting plasma was checked
(<http://www.htdialysis.com/>).
DMSO working solutions were prepared at 400 μM. […] These samples were transferred into new 96-well plates.

hERG potassium channels = hERG potassium channels (Homo sapiens, UniProt Q12809); test: cell-based
Method: For the assay, CHO cells stably expressing hERG potassium channels were plated and cultured for at least 2 days in a humidified and air-controlled (5% CO2) incubator at 37° C. prior to use in electrophysiological experiments. Cells were then harvested using TrypLE and resuspended in physiological solution (10 mM HEPES, 80 mM NaCl, 4 mM KCl, 2 mM CaCl2, 1 mM MgCl2, 5 mM Glucose, 60 mM NM DG, pH 7.4). Test compounds were dissolved in water to obtain stock solutions for different test concentrations. […] One 40 μL addition of the vehicle was applied, followed by a 300s baseline recording period. […] Recordings were required to pass quality control over the duration of the recording or the well was abandoned, and the compound was retested, all automatically set by PatchControl. […] A minimum of 2 replicates per concentration were obtained. […] Curve-fitting and IC50 value calculations were performed by GraphPad Prism 5.0.

HEK293/CRE-Luc cells [2] = test: Luciferase reporter assay, HEK293/CRE-Luc cells without GLP1R (Example 17); assay type: cell-based, human; conditions: HEK293/CRE-Luc cells without hGLP1R, payloads and linker-payloads; for EC50: read-out: EC50
Outline: (§1)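 HEK293 cells carrying a CRE-driven firefly luciferase reporter were exposed to 3-fold serial dilutions of payloads or linker-payloads (12 points, 0.2% DMSO final) for 4–6 h, then luminescence was read. EC50 came from a four-parameter logistic fit; S/N is top RLU over untreated wells, and relative potency and S/N are referenced to M2361.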

human GLP1R [3] = molecular target: T1, human GLP1R (Homo sapiens, UniProt P43220); test: Luciferase reporter assay, HEK293/CRE-Luc/hGLP1R (Example 17); assay type: cell-based; set-up: engineered to express full-length human GLP1R, cynomolgus GLP1R; expressed in transfected cells; host or cells: HEK293/CRE-Luc; conditions: HEK293/CRE-Luc/hGLP1R; for S/N: highest RLU / RLU of untreated wells; for Relative Potency (% M2361 EC50) / Relative Signal:Noise (% M2361): relative to M2361 of the same experiment
Outline: as §1

human GLP1R [4] = molecular target: T1, human GLP1R; test: Human GLP1R cAMP accumulation assay; assay type: cell-based; set-up: HEK293 cells over-expressing full length human GLP-1R were utilized; expressed in transfected cells; host or cells: HEK293 (HEK293/hGLP1R); conditions: HEK293/hGLP1R cells; Table 4; read-out: cAMP EC50
Outline: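 cAMP accumulation measured after 30 min at 23° C, with 500 μM IBMX in HEPES-buffered HBSS plus 0.1% BSA, in HEK293 cells expressing full-length hGLP-1R. Levels read by D2-cAMP/antibody immunoassay via standard curve, scaled between low and high controls. EC50 fitted four-parameter over a 10-point curve.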

HEK293/CRE-Luc cells [5] = test: Luciferase reporter assay, HEK293/CRE-Luc cells without hGLP1R (Example 11); assay type: cell-based, human; conditions: Table 11; Experiment A; no hGLP1R expression
Outline: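 Counter-screen in HEK293 cells carrying CRE-driven firefly luciferase without hGLP1R; 3-fold serial dilutions of payloads or linker-payloads at 0.2% final DMSO, 4–6 h.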

human GLP1R [6] = molecular target: T1, human GLP1R; test: CRE-luciferase reporter assay, HEK293/Myc-hGLP1R/Cre-Luc (Example 9); assay type: cell-based; set-up: engineered to express full-length human GLP1R, cynomolgus GLP1R; expressed in transfected cells; host or cells: HEK293/CRE-Luc; conditions: Table 9; 5.5 h; read-out: HEK293/Myc-hGLP1R/Cre-Luc EC50
Method: To test the activity of GLP1R agonist payloads and GLP1R agonist linker-payloads (LPs) in vitro, a cell-based cAMP responsive luciferase reporter assay was developed.
Cells were incubated overnight at 37° C. in 5% CO2. […] Plates were incubated for 5.5 h at 37° C. in 5% CO2. For end-point measurement, 100 μL/well of One-Glo reagent (Promega, #E6051) was added and plates were kept at room temperature for 5-10 minutes. Luciferase activity was measured on Envision Multilabel Plate Reader (Perkin Elmer) in Luminescent mode. The relative light units (RLU) values were obtained and the results were analyzed using nonlinear regression with GraphPad Prism software (GraphPad).

human GLP1R [7] = molecular target: T1, human GLP1R; test: Luciferase reporter assay, HEK293/CRE-Luc/hGLP1R cells (Example 11); assay type: cell-based; set-up: engineered to express full-length human GLP1R, cynomolgus GLP1R; expressed in transfected cells; host or cells: HEK293/CRE-Luc; conditions: Table 11; Experiment A

T1 sequence (P43220 24-463): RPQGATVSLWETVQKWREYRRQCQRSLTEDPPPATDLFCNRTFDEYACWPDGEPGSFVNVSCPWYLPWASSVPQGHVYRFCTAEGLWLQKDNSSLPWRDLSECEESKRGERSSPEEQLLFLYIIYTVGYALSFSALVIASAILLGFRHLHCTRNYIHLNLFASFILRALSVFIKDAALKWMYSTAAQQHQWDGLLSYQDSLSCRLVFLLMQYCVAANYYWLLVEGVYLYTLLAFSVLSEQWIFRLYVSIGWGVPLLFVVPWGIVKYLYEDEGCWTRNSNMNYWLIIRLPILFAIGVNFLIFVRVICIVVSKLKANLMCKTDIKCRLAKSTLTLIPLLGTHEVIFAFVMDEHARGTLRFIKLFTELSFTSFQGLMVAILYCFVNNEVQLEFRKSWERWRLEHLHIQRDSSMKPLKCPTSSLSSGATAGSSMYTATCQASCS
Chain of hERG potassium channels (Q12809 whole entry): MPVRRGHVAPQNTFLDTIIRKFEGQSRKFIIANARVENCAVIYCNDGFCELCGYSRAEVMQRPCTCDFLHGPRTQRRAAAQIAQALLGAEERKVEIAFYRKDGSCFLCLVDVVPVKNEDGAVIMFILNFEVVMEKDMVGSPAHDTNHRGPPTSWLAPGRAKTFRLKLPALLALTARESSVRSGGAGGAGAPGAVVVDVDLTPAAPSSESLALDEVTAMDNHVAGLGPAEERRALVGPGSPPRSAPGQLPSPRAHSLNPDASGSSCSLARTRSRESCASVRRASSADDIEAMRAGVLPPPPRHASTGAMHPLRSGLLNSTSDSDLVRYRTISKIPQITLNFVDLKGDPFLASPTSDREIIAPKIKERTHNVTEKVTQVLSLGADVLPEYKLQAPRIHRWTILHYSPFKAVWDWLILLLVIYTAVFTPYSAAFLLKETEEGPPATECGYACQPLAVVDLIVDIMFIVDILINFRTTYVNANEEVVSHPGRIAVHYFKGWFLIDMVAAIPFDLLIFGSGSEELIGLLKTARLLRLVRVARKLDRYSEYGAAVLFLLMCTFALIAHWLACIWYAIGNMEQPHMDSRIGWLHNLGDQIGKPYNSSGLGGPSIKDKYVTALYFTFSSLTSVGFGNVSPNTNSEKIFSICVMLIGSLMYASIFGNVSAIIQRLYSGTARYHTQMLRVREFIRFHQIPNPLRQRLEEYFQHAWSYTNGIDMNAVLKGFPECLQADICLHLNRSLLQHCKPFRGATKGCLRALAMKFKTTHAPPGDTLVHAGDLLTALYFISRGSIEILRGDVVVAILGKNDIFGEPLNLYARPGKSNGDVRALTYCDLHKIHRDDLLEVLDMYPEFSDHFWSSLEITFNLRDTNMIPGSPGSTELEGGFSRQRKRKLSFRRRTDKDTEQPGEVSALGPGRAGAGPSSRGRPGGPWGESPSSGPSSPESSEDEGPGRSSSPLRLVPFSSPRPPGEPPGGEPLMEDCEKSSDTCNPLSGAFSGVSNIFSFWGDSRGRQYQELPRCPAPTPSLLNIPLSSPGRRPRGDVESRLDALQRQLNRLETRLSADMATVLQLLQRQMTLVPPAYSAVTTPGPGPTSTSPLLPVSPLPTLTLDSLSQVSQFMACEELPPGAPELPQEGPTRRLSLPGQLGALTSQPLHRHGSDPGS

| recovery at 4 h, 2 µM [1] | Compound | IC50 (hERG potassium channels) | S/N (HEK293/CRE-Luc cells [2]) | EC50 (HEK293/CRE-Luc cells [2]) | S/N (human GLP1R [3]) | EC50 (human GLP1R [3]; payloads and linker-payloads, experiments A-E, M2361 repeated in each, read-out: EC50) | Relative Potency (% M2361 EC50) (human GLP1R [3]) | Relative Signal:Noise (% M2361) (human GLP1R [3]) | EC50 (human GLP1R [4]) | EC50 (HEK293/CRE-Luc cells [5]) | HEK293/CRE-LUC S/N (HEK293/CRE-Luc cells [5]) | EC50 (human GLP1R [6]) | EC50 (human GLP1R [7]) | HEK293/CRE-LUC/hGLP1R Relative Potency (% P8 EC50) (human GLP1R [7]) | HEK293/CRE-LUC/hGLP1R S/N (human GLP1R [7]) |
| --- | --- | --- | --- | --- | --- | --- | --- | --- | --- | --- | --- | --- | --- | --- | --- |
| 98.3% | CC(=O)CC(c1ccccc1)c1c(O)c2ccccc2oc1=O (centres unmarked) [Warfarin] | – | – | – | – | – | – | – | – | – | – | – | – | – | – |
| – | CCc1cc(OCCCCn2cc(COCCOCCOCCOCCNC(=O)COC3C#CCCCCC3)nn2)ccc1-c1ccc(C[C@H](NC(=O)[C@H](CC(=O)O)NC(=O)[C@H](CO)NC(=O)[C@@H](NC(=O)[C@](C)(Cc2ccccc2F)NC(=O)[C@@H](NC(=O)CNC(=O)[C@H](Cc2nn[nH]n2)NC(=O)C(C)(C)C(=O)NCCc2cnc[nH]2)[C@@H](C)O)[C@@H](C)O)C(=O)N[C@@H](CCCc2cc(C)cc(C)c2)C(N)=O)cc1 (some centres unmarked) [LP10, COT-PEG4-triazole-P8] | > 100000 nM | 1.1 | > 200 nM | 51.7 | 0.0391 nM | 13.6% | 78.7% | 0.982 nM | – | – | – | – | – | – |
| – | CCc1cc(OCCCCNC(=O)CCOCCOCCOCCOCCOCCOCCOCCOCCOCCOCCOCCOCCOCCOCCOCCOCCOCCOCCOCCOCCOCCOCCOCCOCCNC(=O)CCC(=O)N2Cc3ccccc3C#Cc3ccccc32)ccc1-c1ccc(C[C@H](NC(=O)[C@H](CC(=O)O)NC(=O)[C@H](CO)NC(=O)[C@@H](NC(=O)[C@](C)(Cc2ccccc2F)NC(=O)[C@@H](NC(=O)CNC(=O)[C@H](Cc2nn[nH]n2)NC(=O)C(C)(C)C(=O)NCCc2cnc[nH]2)[C@@H](C)O)[C@@H](C)O)C(=O)N[C@@H](CCCc2cc(C)cc(C)c2)C(N)=O)cc1 [LP4, DIBAC-suc-PEG24-P9] ({Malonyl(2,2-Me2,histaminyl)}-[Ala(1H-tetrazol-5-yl)]GT[αMePhe(2-F)]TSD[Bip(2'-Et-4'-O(CH2)4NH2)]([PEG24-Suc-DBCO])[Nva(5-(3,5-Me2Ph))]-NH2) | – | 1.7 | > 200 nM | 63.8 | – | 4.2% | 97.1% | – | > 200 nM | 1.7 | 0.0715 nM | 0.127 nM | 4.2% | 63.8 |
